Assay [1] has as its system P388. The assay is described as follows: In vivo cytotoxicity against mouse P388 cells at 5 mg/kg. Set-up: dose 5 mg/kg. In kind it is functional, organism-based.
In assay [2] the test system is P388. The assay is described as follows: Growth inhibition of mouse P388 cells. In kind it is functional.
A short description of assay [3]: Antimitotic activity against rat 9ASK cells assessed as reversal of astrocyte morphology at 1 to 100 ug/ml. In kind it is functional.
A short description of assay [4]: Cytotoxicity against rat 9ASK cells at 0.1 ug/ml. In kind it is functional.
The nature of assay [5]: Antimitotic activity against rat 9ASK cells assessed as reversal of astrocyte morphology at 0.1 ug/ml. The format is functional.

Values after ≈ are worked out from the molar mass of the structure shown. Active and inactive are the calls of the source. No cut-off for these calls is given here.

Regarding `COc1ccc(C[C@@H](O)c2cc(OC)c(OC)c(OC)c2)cc1O` [COMBRETASTATIN], the outcome in the assay on P388 [1] was Active. In addition, the EC50 in the assay on P388 [2] (read-out: ED50 (the source's name)) is 0.011 µg/mL (≈ 0.0329 µM). Moreover, the Activity in assay [3] was 71%; in assay [4] it was 0%; in assay [5] it was 51%.

`COc1ccc(-c2cc(=O)c3c(O)cc(O)cc3o2)cc1`: in the assay with P388 [2], the ED50 result was “inactive”.

Turning to `COc1cc2c(=O)oc3c(OC)c(O)cc4c(=O)oc(c1OC)c2c34`, in the assay on P388 [2], the ED50 entry was “inactive”.
